This note sets out measurements from patent publication US11369609B2, “Small molecule Wnt inhibitor as treatment for dyslipidemia” (Yale University, priority 2019, dated 2022).

For data set [1], the system named is canonical Wnt signaling. Description: Plasma cytokine array analysis (Luminex) in wnti-treated diabetic mice. It is filed as in vivo. The method, then:
FIG. 22. […] Cytokines and chemokines were measured in plasma by using the cytokine array analysis (Luminex). The plasma of wnti-treated diabetic mice was analyzed for cytokine array analysis. N=5/group. Data are shown as mean±SEM. Tukey test was used for the analysis of statistical significance. *p<0.05.
To determine whether inhibition of the Wnt signaling pathway could ameliorate the observed fibrosis, LGK974, a small molecule inhibitor of all secreted Wnts (43), was utilized. FIGS. 21A-21B depict the schematic diagram showing the experimental protocol for LGK974 treatment in diabetic CD-1 and UUO mice.

For data set [2], the system named is canonical Wnt signaling. Description: Atherosclerosis in high fat diet-fed Apoe−/− and DKO TCF/Lef-LacZ mice. In kind it is in vivo. From the text:
Apoe −/− and endothelial GR KO/Apo E KO double knockout (DKO) mice were fed a high fat diet containing 1.25% cholesterol (Research Diets) for the time indicated. In some experiments, animals of both genotype were bred to the BAT-GAL (ß-catenin/TCF/LEF) reporter transgenic mouse. Mice were sacrificed and the aortas removed. Aortas were stained with X-galactosidase (Sigma-Aldrich) according to the manufacturer's instructions. In other aortas, total RNA was extracted and cDNA was made as described above. The custom PCR array was used to evaluate pathways of interest as described. All studies were performed according to a protocol approved by the Institutional Care and use Committee at Yale University School of Medicine and were consistent with the National Institutes of Health Guidelines for the Care of Laboratory Animals.
Mice were fasted for 12-15 hours and blood was collected by retro-orbital venous puncture. Whole blood was spun down and plasma stored at −80° C. Total cholesterol and triglyceride levels were measured enzymatically by kits from Wako and Sigma, respectively, according to the manufacturer's instructions.
At the completion of high-fat diet feeding mice were anesthetized and euthanized. Mouse hearts were perfused with PBS and then 4% paraformaldehyde (PFA) and the aortas and were dissected out using a dissecting microscope and maintained in PFA overnight. Whole aortas were stained with Oil Red O (Sigma) to quantify lesion area. Oil Red O stock solution (35 ml, 0.2% weight/volume in methanol) was mixed with 10 ml 1 M NaOH and filtered. Aortas were briefly rinsed in 78% methanol, incubated in Oil Red O for 45 minutes and then destained in 78% methanol for 5 minutes and mounted on microscopic slides. Lipid staining and lesion size were quantified by averaging six sections from the same mouse using the IMAGE J program.
In order to visualize the activation of canonical Wnt signaling, Apoe^−/−, GR^fl/fl, Tie2 Cre−; TCF/Lef-LacZ (Apoe^−/−) mice were bred with Apoe^−/−, GR^fl/fl, Tie2 Cre+; TCF/Lef-LacZ (DKO) mice. Apoe^−/− and DKO mice were fed a high fat diet (HFD) for 12 weeks. The Wnt inhibitor (wnti) LGK974 at a dose of 5 mg/kg body weight, or vehicle, was administered 6 days/week by oral gavage from 4-12 weeks. The aortas of vehicle-treated control animals and wnti-treated animals (n=6-7/group) were stained for LacZ (FIG. 11B). A LacZ(−) aorta was included as a control. […] Aortic area stained is quantified in the corresponding graph (FIG. 11B). Body weight of the animals of both genotypes with and without Wnti treatment was measured. […] Triglycerides, total cholesterol and HDL cholesterol were measured after 12 weeks of diet feeding in animals of both genotypes in the presence of absence of Wnti. […] Lipid deposition in aortas of wnti- or vehicle-treated Apoe^−/− and DKO treated mice was analyzed by Oil Red O staining. Atherogenic lesion area was calculated by using the Image J program. […] Masson Trichrome and H&E staining was performed in the brachiocephalic artery of Wnti- or sham-treated Apoe^−/− and DKO treated mice (FIG. 11F). Lesion size was measured using Image J program.

[3] abbreviates: 5 mg/kg oral gavage 6 days/week, weeks 4-12 of HFD, both genotypes.

Entries after “also recorded” stand apart in the source; their conditions may differ.

Turning to `Cc1cc(-c2ncc(CC(=O)Nc3ccc(-c4cnccn4)cn3)cc2C)ccn1` [LGK974], in the data set with canonical Wnt signaling [1], the “cytokine- and chemokine reprogramming in plasma” value is “disrupts the cytokine- and chemokine reprogramming”; the “plasma CCL4 level” value is listed as “significantly suppressed”; the “plasma CCL5 level” value is recorded as “elevating”; the “plasma G-CSF level” value is reported as “significantly suppressed”. In the data set with canonical Wnt signaling [1], the “plasma IL-1β level” value is reported as “significantly suppressed”, the “plasma IL-6 level” value is “significantly suppressed”, the “plasma IL-10 level” value is on record as “significantly suppressed” and the “plasma MCP-1 level” value was “significantly suppressed”. Moreover, the “plasma TNFα level” value in the data set on canonical Wnt signaling [1] was “significantly suppressed”. Moreover, in the data set on canonical Wnt signaling [2] (5 mg/kg oral gavage 6 days/week, weeks 4-12 of HFD), the “atherosclerosis prognosis / atherogenic phenotype” value was “significantly improves the atherogenic phenotype; also recorded: surprising improvement in atherosclerosis prognosis”. In the data set with canonical Wnt signaling [2] (setting [3]), the “activation of canonical Wnt signaling (LacZ staining in aortas)” value is reported as “clearly attenuated” and the body weight result is listed as “no weight loss”. In addition, the “lesion size in brachiocephalic arteries” value in the data set with canonical Wnt signaling [2] (Masson Trichrome and H&E staining) was “dramatically reduced lesion size”. The cholesterol result in the data set on canonical Wnt signaling [2] (after 12 weeks of HFD, both genotypes) is “dramatic reduction in cholesterol; also recorded: enormous”. The “lipid deposition in aortas (Oil Red O staining)” value in the data set on canonical Wnt signaling [2] (both genotypes) is “dramatic reduction in lipid deposition”. Moreover, in the data set with canonical Wnt signaling [2] (in vivo use in atherogenic mouse model), the “decrease in cholesterol levels” value was “about 50%”. In addition, the “H&E and Oil Red O staining in the aortic root of heart sections” value in the data set with canonical Wnt signaling [2] (mouse, in vivo) is given as “histological improvement”.
